{"source": "patent US20130072531A1", "about": "“SOLID DISPERSION COMPRISING AN ANTI-HIV AGENT” (AiCuris GmbH & Co. KG, priority 2009, published 2013)", "key": {"[1]": {"test": "Solubility studies: dissolution, paddle method, sodium laurylsulphate 0.5% (w/v) medium", "type": "physicochemical", "procedure": "The compound of formula (I) both in crystalline form and spray dried (at T0 and after 3 weeks […]) storage at 25° C., 60% RH and 40° C., 75% RH respectively) as well as the solid dispersions of Examples 1 to 4 (at T0 and after 2 weeks […]) storage at 25° C., 60% RH and 40° C., 75% RH respectively) and Example 5 at T0 only were introduced in a VK 7000 dissolution system (VanKel, New Jersey, USA), using the paddle method, combined with a VK 8000 automatic sampling station (n=3). Sodium laurylsulphate 0.5% (w/v) was used as dissolution medium. The temperature of the medium (900 ml) was kept at 37±0.5 ° C., while the rotational speed of the paddles was set at 100 rpm. Samples (filtered using Full Flow Filters (Varian) -35 μm) of 5 ml were withdrawn at 5, 10, 15, 20, 30, 45 and 60 min and spectrophotometrically analysed at 240 nm by UV-spectrophotometry, type UV-1650 (Shimadzu, Deurne, Belgium) (w/w dilution if necessary), using an appropriate calibration curve. Each vessel contained approximately 150 mg of the compound of formula (I)."}, "[2]": {"test": "X-ray diffraction of solid dispersions at T0 and after storage", "type": "physicochemical", "details": "after 3 weeks at 40° C., 75% RH", "procedure": "The spray dried particles were collected in a reservoir attached to a cyclone, cooled down to room temperature and stored in sealed vials (room temperature, ambient relative humidity (RH)) prior to their characterisation at T0. After characterisation at T0, the spray dried solids were stored in open vials for 2 weeks (3 weeks for Comparative Example 1) in desiccators at 25° C., 60% RH and 40° C., 75% RH. X-ray diffraction (D-500, Siemens, Germany) with CuKα radiation (0.154 nm) was performed on physical mixtures of the compound of formula (I) with HPMC ES, HPC LF, HPMCP HP-50 and PVP K30 and the corresponding solid dispersions (at T0 and after 2 weeks […]) storage at both conditions), as well as spray dried compound of formula (I) without polymer (storage for three weeks under the two conditions). The angular range (2θ) varied from 15 to 60° with steps of 0.02° and the measuring time was 1 s/step."}, "[3]": {"test": "Storage experiments, visual inspection", "type": "physicochemical", "details": "open vials, 2 weeks (3 weeks Comparative Example 1), 25° C., 60% RH and 40° C., 75% RH", "procedure": "The spray dried particles were collected in a reservoir attached to a cyclone, cooled down to room temperature and stored in sealed vials (room temperature, ambient relative humidity (RH)) prior to their characterisation at T0. After characterisation at T0, the spray dried solids were stored in open vials for 2 weeks (3 weeks for Comparative Example 1) in desiccators at 25° C., 60% RH and 40° C., 75% RH."}, "[4]": {"tested_on": "wild-type and resistant HIV strains", "test": "Activity against HIV strains (experiences so far)"}, "[5]": {"test": "Water solubility of crystals (experiences so far)", "type": "physicochemical"}}}
{"smiles": "O=C1CN(C(=O)c2cc(-c3cc(F)cc(Cl)c3)n(-c3ccc(F)c(Cl)c3)n2)CN1", "note": "[Comparative Example 1]", "values": [{"measurement": "compound of formula (I) dissolved after 60 minutes after storage", "setting": "[1]; after storage at 40° C., 75% RH for three weeks, 60 min", "result": 35, "unit": "%"}, {"measurement": "compound of formula (I) dissolved / released after 30 minutes", "setting": "[1]; fresh (T0), sodium laurylsulphate 0.5% (w/v), 900 ml, 37 °C, 100 rpm, 30 min", "result": "about 60%"}, {"measurement": "formation of the crystalline form of the compound of formula (I) (X-ray)", "setting": "[2]", "result": "formation of a large amount of the crystalline form"}, {"measurement": "storage stability to visual inspection (colouration)", "setting": "[3]", "result": "storage stable"}]}
{"smiles": "O=C1CN(C(=O)c2cc(-c3cc(F)cc(Cl)c3)n(-c3ccc(F)c(Cl)c3)n2)CN1", "note": "[compound of formula (I)]", "values": [{"measurement": "compound of formula (I) dissolved / released after 60 minutes", "setting": "[1]; fresh (T0), sodium laurylsulphate 0.5% (w/v), 900 ml, 37 °C, 100 rpm, 60 min", "result": "about 40%"}, {"measurement": "activity against wild-type and resistant HIV strains", "setting": "[4]", "result": "highly active"}, {"measurement": "water solubility of crystals", "setting": "[5]", "result": "only sparingly water-soluble"}]}
